Experimental data published in patent publication US8202893B2, “Cannabinergic lipid ligands” (University of Connecticut, priority 2004, dated 2012).
Where two headings read alike, the source gives them in different places.

What was measured:
Mag-lipase = target: T1, Mag-lipase (Rattus norvegicus, UniProt Q8R431); assay: Inhibition of MAG-lipase: 2-AG metabolism to arachidonic acid; type: biochemical; settings: 30 nmoles compound with 30 nmoles 2-AG, 30 μg enzyme, 300 μL, 20 min
T1 construct: supernatant from final spin in the anandamide amidase preparation; from tissue; host or cells: supernatant (soluble fraction) of the anandamide amidase preparation, rat brain by the cited procedure
T1 sequence (Q8R431 1-303): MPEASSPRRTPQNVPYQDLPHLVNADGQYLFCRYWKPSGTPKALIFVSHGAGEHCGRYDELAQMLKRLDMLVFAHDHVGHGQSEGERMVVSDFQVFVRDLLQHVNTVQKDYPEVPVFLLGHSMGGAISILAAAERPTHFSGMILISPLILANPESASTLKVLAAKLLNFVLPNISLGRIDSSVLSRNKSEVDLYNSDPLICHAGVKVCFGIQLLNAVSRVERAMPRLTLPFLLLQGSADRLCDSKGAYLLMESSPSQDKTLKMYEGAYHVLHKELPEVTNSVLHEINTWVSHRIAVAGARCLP
Description: (§1) All compound solutions were made to a concentration of 10 mM in DMSO. Three tests were performed on each compound: hydrolysis, to determine the stability of the compound in assay conditions without the enzyme present; metabolism, to determine the stability of the compound with the enzyme present; and inhibition of 2-Arachidonoyl glycerol (native substrate) metabolism to arachidonic acid.
(§2) The inhibition of 2-AG metabolism was measured by mixing 30 nmoles of the compound with 30 nmoles 2-AG, and 30 μg enzyme preparation in TME buffer (final volume of 300 μL). Again the reaction mixture was treated in the same manner as described above and the concentrations of 2-AG and AA were calculated using external standards. Percent inhibition was calculated using the following equation: % Inhib.=(AA20-AA0)i/(AA20-AA0)s where (AA20-AA0)i is the amount of arachidonic acid formed over 20 minutes from 2-AG with the inhibitor present and (AA20-AA0)s is the amount of arachidonic acid formed over 20 minutes from 2-AG when the inhibitor is not present. […] The reaction mixtures were treated as described above and the amount of AA formed was calculated. The software package GraphPad Prism was utilized to calculate IC50 and Ki. HPLC Conditions:
(§3) Chromatographic separation was achieved using an Ultrasphere ODS Pre-column (4.6×45 mm) from Beckman. Hardware consisted of a Waters Millennium HPLC system with a 20 μL injection loop. The mobile phase consisted of 8.5% o-phosphoric acid:acetonitrile (3:7), run isocratically at a rate of 1 mL/min and detection at 204 nm. The total run time was 8 minutes with 2-AG eluting at 3.0 minutes and AA at 6.0 minutes.

anandamide transporter = assay: [3H]Anandamide transporter competition assay; type: cell-based; settings: human CCF-STG1 astrocytoma cells, 10 nM [3H]anandamide
Description: Human CCF-STG1 astrocytoma cells (American Type Culture collection) were grown in RPMI1640 culture medium containing 2 mM L-glutamine, 4.5 g/L glucose, 10 mM HEPES, and 1.0 mM sodium pyruvate, 10% FBS, cultures at 37° C. with 5% CO2. For standard competition assays, confluent cells grown in 24-well plates were rinsed and preincubated for 10 min at 37° C. in assay buffer (Hank's Balanced Salt Solution containing 0.1% DMSO, 10 mM HEPES) plus test compounds (at their final concentrations of 0.01-100 μM). After having discarded the preincubation media, the cells were incubated for 4 min in 0.2 ml assay buffer containing 10 nM [^3H] anandamide (137.6 Ci/mmol, New England Nuclear) plus test compounds. Reactions were stopped by removing the incubation media and rinsing the cells three times with 0.5 ml of ice-cold HBSS buffer containing 0.1% fatty acid-free Bovine Serum Albumin (sigma). Radioactive material in Triton X-100 cell extracts was measured by liquid scintillation counting. A minimum of three independent experiments conducted in six replicates was used to define the concentration needed to produce half-maximal inhibition (IC50) for each compound. IC50 values were obtained by nonlinear regression fitting of the data, using the PRIZM software package. Data are expressed as mean±SEM.

CB1 cannabinoid receptor = target: T2, CB1 cannabinoid receptor (Rattus norvegicus, UniProt P20272); assay: CB1 receptor binding, [3H]CP-55,940 displacement; settings: rat forebrain membranes
T2 construct: membranes were prepared from rat forebrain membranes; from tissue; host or cells: rat forebrain
T2 sequence (P20272 whole entry): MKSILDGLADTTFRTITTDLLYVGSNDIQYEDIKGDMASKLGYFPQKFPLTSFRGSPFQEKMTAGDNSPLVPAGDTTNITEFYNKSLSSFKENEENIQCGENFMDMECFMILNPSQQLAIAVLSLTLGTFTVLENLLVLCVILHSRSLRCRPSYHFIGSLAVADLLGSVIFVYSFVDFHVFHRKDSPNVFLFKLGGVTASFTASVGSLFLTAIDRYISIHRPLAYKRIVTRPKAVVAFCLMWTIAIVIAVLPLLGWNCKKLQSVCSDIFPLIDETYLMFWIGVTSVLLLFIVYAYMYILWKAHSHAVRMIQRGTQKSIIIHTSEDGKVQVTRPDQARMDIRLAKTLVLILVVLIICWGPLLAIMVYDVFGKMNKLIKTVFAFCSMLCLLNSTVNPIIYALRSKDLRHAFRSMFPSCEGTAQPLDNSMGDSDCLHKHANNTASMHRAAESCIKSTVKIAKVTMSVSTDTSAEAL
Description: Some inventive analogs were tested for CB2 receptor binding affinity and for CB1 receptor affinity (to determine selectivity). […] The lower the Ki value, the higher the binding affinity. […] For the CB1 receptor binding studies, membranes were prepared from rat forebrain membranes according to the procedure of P. R. Dodd et al, A Rapid Method for Preparing Synaptosomes: Comparison with Alternative Procedures, Brain Res., 107-118 (1981). The binding of the novel analogues to the CB1 cannabinoid receptor was assessed as described in W. A. Devane et al, Determination and Characterization of a Cannabinoid Receptor in a Rat Brain, Mol. Pharmacol., 34, 605-613 (1988) and A. Charalambous et al, 5′-azido Δ^8-THC: A Novel Photoaffinity Label for the Cannabinoid Receptor, J. Med. Chem., 35, 3076-3079 (1992) with the following changes. The above articles are incorporated by reference herein.
Membranes, previously frozen at −80° C., were thawed on ice. To the stirred suspension was added three volumes of TME (25 mM Tris-HCl buffer, 5 mM MgCl2 and 1 mM EDTA) at a pH 7.4. The suspension was incubated at 4° C. for 30 min. At the end of the incubation, the membranes were pelleted and washed three times with TME.
(§4) The treated membranes were subsequently used in the binding assay described below. Approximately 30 μg of membranes were incubated in silanized 96-well microtiter plate with TME containing 0.1% essentially fatty acid-free bovine serum albumin (BSA), 0.8 nM [^3H] CP-55,940, and various concentrations of test materials in a final volume of 200 μL. The assays were incubated for 1 hour at 30° C. and then immediately filtered using Packard Filtermate 196 harvester and Whatman GF/C filterplates and washed with wash buffer (TME) containing 0.5% BSA. Radioactivity was detected using MicroScint 20 scintillation cocktail added directly to the dried filterplates, and the filterplates were counted using a Packard Instruments Top-Count. Nonspecific binding was assessed using 100 nM CP-55,940. Data collected from three independent experiments performed with duplicate determinations was normalized between 100% and 0% specific binding for [^3H] CP-55,940, determined using buffer and 100 nM CP-55,940. The normalized data was analyzed using a 4-parameter nonlinear logistic equation to yield IC50 values.

CB2 receptor = target: T3, CB2 receptor (Mus musculus, UniProt P47936); assay: CB2 receptor binding, [3H]CP-55,940 displacement; settings: mouse spleen membranes
T3 construct: membranes were prepared from frozen mouse spleen; from tissue; host or cells: mouse spleen
T3 sequence (P47936 whole entry): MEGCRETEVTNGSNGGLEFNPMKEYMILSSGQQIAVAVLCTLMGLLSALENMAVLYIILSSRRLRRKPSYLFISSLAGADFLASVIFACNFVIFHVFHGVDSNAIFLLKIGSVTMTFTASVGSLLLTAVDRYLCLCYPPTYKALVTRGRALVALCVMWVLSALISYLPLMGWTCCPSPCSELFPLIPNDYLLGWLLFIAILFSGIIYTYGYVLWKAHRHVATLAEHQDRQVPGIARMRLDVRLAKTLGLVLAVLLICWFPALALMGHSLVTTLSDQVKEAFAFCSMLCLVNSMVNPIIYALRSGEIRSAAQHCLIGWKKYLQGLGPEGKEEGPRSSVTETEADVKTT
Description: as §4
For the CB2 receptor binding studies, membranes were prepared from frozen mouse spleen essentially according to the procedure of P. R. Dodd et al, A Rapid Method for Preparing Synaptosomes: Comparison with Alternative Procedures, Brain Res., 226, 107-118 (1981) which is incorporated by reference herein. Silanized centrifuge tubes were used throughout to minimize receptor loss due to adsorption. The CB2 binding assay was conducted in the same manner as for the CB1 binding assay. The binding affinities (Ki) were also expressed in nanomoles (nM).

[1] = target: T4, FAAH (fatty acid amide hydrolase) (Rattus norvegicus, UniProt P97612); assay: FAAH screening: inhibition of anandamide metabolism to arachidonic acid; type: biochemical; settings: 25 nmoles compound with 25 nmoles AEA, 75 μg enzyme, 250 μL, 15 min
T4 construct: Anandamide Amidase Activity in Rat Brain Microsomes; from tissue; host or cells: rat brain microsomes (by the cited procedure)
T4 sequence (P97612 1-579): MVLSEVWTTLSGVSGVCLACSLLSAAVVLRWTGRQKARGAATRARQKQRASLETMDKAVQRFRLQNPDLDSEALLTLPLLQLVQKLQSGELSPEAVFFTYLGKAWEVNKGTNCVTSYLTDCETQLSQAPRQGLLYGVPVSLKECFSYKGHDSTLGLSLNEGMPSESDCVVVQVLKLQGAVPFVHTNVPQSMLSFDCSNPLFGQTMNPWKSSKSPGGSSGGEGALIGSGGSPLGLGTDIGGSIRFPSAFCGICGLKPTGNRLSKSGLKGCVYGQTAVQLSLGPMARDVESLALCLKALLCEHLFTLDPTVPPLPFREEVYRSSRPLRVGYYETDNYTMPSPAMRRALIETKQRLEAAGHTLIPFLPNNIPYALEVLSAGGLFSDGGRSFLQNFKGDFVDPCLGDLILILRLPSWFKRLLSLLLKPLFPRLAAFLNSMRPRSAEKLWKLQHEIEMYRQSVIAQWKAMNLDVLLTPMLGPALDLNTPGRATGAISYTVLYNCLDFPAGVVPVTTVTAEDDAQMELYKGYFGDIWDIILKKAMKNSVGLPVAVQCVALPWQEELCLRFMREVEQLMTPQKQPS
Description: The FAAH (fatty acid amide hydrolase) enzyme preparation was obtained according to the procedure of Lang and Makriyannis et al High Performance Liquid Chromatographic Determination of Anandamide Amidase Activity in Rat Brain Microsomes, Analytical Biochemistry (238): 40-45, 1996.
as §1, with “anandamide” for “2-Arachidonoyl glycerol”
as §2, with “Again” for “The inhibition of 2-AG metabolism was measured by mixing 30 nmoles of the compound with 30 nmoles 2-AG, and 30 μg enzyme preparation in TME buffer (final volume of 300 μL). Again”, “AEA” for “2-AG”, “Inhib.=(AA15-AA0)i/(AA15-AA0)s” for “Inhib.=(AA20-AA0)i/(AA20-AA0)s”, “(AA15-AA0)c” for “(AA20-AA0)i”, “15” for “20”, “(AA15-AA0)s” for “(AA20-AA0)s”
as §3, with “AEA” for “2-AG”, “2.2” for “3.0”

[2] = with PMSF (second value of cell), read-out: Ki CB1 (nM) (o/w PMSFQ)
[3] = without PMSF (first value of cell), read-out: Ki CB1 (nM) (o/w PMSFQ)
[4] = with PMSF (second value of cell), read-out: Ki CB1 (nM) (o/w PMSF)
[5] = without PMSF (first value of cell), read-out: Ki CB1 (nM) (o/w PMSF)

Compound | Mag-Lipase % Inhibition (Mag-lipase) [%] | IC50 (anandamide transporter; read-out: IC50 (AT inhib.)) [µM] | Ki (CB1 cannabinoid receptor; [2]) [nM] | Ki (CB1 cannabinoid receptor; [3]) [nM] | Ki (CB2 receptor) [µM] | IC50 (anandamide transporter; read-out: IC50 AT inhibition) [µM] | FAAH % Inhibition [1] [%] | Ki (CB1 cannabinoid receptor; [4]) [nM] | Ki (CB1 cannabinoid receptor; [5]) [nM] | inhibition at 100 µM (Mag-lipase) [%]
CCCCC/C=C\C/C=C\C/C=C\C/C=C\CCCCOC(=O)NC1=NCCS1 [Compound B10] | 34.0 | 8.6 |  |  |  |  |  |  |  | 
CCCCCN(C)C/C=C\C/C=C\C/C=C\C/C=C\CCCCNC(=O)c1ccc(O)cc1 [Compound A27] | 4.2 |  | 1620 | 2220 | 2.56 | 7.1 |  |  |  | 
CCCCCN(C)C/C=C\C/C=C\C/C=C\C/C=C\CCCCNC(=O)c1ccc(O)cc1 [Compound A26] | 9.8 |  | 2150 | 4720 | 2.91 | 5.4 |  |  |  | 
[N-]=[N+]=NCCCCC/C=C\C/C=C\C/C=C\C/C=C\CCCC(=O)Nc1ccc(O)cc1 [Compound A13] |  |  | 531 | 3830 | 0.335 | 0.7 | 33 |  |  | 
O=C(CCC/C=C\C/C=C\C/C=C\C/C=C\CCCCCCl)NC1CC1 [Compound A20] |  |  | 0.17 | 57.9 | 0.0283 | 4.1 | 67 |  |  | 
CCCCCCCCC=CCCCCCCCCOC(=O)NCC(C)O (stereo not shown) [Compound B13] | 13.1 | 5.92 |  |  | 2.6 |  |  | 2240 | 4750 | 
CCCCC/C=C\C/C=C\C/C=C\C/C=C\CCCCOC(=O)Nc1cccnc1 [Compound B11] |  | 16.1 |  |  | 0.185 |  |  | 96.4 | 302 | 16.8
CCCCC/C=C\C/C=C\C/C=C\C/C=C\CCCCOC(=O)Nc1ccc(O)cc1 [Compound B9] |  | 6.6 |  |  | 0.533 |  | 27.3 | 3300 | 5390 | 
